The values that follow come from patent US6835382B2, “Ii peptide therapeutics to enhance antigen presentation” (University of Massachusetts, priority 1996, dated 2004).

The subject of the assay is murine E^d MHC class II allele. The assay can be described thus: simultaneous assay, E^d allele (A20 APC, G28.C9 T hybridoma, HEL106-116; HT-2 [3H]TdR readout). As to conditions: simultaneous assay, Table 14, versus AE114 / AE301; E^d and E^k. It counts as cell-based. How it is done:
Examples 1-4 (Tables 1-18) will be briefly considered in order to establish the concept of tolerance discussed above. These examples describe experimental results observed in the so-called “simultaneous” assay. In the simultaneous assay four principle components are cultured together for a 24 hour period. […] The degree of stimulation of that second, indicator cell by the interleukins which had been released from the activated T cell hybridoma in the primary culture is measured by quantitating tritiated thymidine deoxyribose {[^3H]TdR} uptake into the DNA of the HT-2 indicator cells of that second culture.
In the “simultaneous assay” the four components of the assay are cultured together for a 24 h period. […] The degree of stimulation of that second, indicator cell by the interleukins which had been released from the activated T cell hybridoma in the primary culture is measured by quantitating tritiated thymidine deoxyribose {[^3H]TdR} uptake into the DNA of the HT-2 indicator cells of that second culture. […]

As to Ac-LR (mL) KLPK-NH2 [AE302], the “reduction in activity on substitution of 3-methionine by N-methyl leucine” value is on record as 50-70%.
